Data as given in US20080300243A1, “Amide Derivatives as Ion-Channel Ligands and Pharmaceutical Compositions and Methods of Using the Same” (priority 2005, published 2008).

Columns and labels:
VR1 [1] = molecular target: T1, VR1 (Homo sapiens, UniProt Q8NER1); experiment: Acid stimulation assay (FDSS 6000); format: cell-based; design: host or cells: unspecified cell suspension; conditions: final assay buffer pH5.8, 15 min pre-incubation
Description: The Acid-induced changes in the intracellular calcium concentration were monitored using FDSS 6000 (Hamamatsu Photonics, Japan), a fluorometric imaging system. The cell suspension in resting buffer (HBSS supplemented with […], pH 7.4) was pre-incubated with varying concentrations of the test compounds or resting buffer (buffer control) for 15 minutes at room temperature under dark conditions. The cells were automatically added the stimulating solution (HBSS supplemented with MES, final assay buffer pH5.8) by the FDSS 6000.
Target sequence in this assay (Q8NER1 whole entry, species assumed): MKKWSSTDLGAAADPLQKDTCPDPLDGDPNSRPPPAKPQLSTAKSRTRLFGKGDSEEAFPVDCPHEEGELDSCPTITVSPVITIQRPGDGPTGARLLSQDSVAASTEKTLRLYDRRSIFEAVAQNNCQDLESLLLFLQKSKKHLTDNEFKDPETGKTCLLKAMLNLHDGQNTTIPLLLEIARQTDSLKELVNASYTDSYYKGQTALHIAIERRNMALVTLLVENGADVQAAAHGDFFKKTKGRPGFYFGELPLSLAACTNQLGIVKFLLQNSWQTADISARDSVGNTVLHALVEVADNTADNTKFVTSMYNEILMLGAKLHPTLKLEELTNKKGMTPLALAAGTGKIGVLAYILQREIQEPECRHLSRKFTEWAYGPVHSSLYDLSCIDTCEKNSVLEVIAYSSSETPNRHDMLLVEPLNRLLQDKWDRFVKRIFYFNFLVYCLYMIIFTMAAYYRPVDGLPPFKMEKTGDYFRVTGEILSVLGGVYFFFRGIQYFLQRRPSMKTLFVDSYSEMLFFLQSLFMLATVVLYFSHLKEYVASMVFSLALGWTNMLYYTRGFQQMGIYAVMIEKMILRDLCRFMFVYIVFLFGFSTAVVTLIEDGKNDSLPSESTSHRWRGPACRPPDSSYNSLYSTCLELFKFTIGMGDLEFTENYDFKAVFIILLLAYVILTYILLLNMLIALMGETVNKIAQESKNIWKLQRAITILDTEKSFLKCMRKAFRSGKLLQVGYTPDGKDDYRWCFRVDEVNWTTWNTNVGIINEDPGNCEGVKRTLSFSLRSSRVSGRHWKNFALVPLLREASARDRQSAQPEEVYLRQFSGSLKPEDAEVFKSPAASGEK

VR1 [2] = molecular target: T1, VR1; experiment: Calcium uptake assay, capsaicin stimulus; format: cell-based; design: expressed in transfected cells; host or cells: T-REx HEK 293 (Invitrogen), pcDNA5/TO vector; conditions: 3 nM compound
Target sequence in this assay (Q8NER1 whole entry): as the sequence (Q8NER1 whole entry, species assumed) above

VR1 [3] = molecular target: T1, VR1; experiment: Calcium uptake assay, low pH (proton) stimulus; format: cell-based; design: expressed in transfected cells; host or cells: T-REx HEK 293 (Invitrogen), pcDNA5/TO vector; conditions: HEK293; 0.3 μM compound; low pH agonist; HEK 293 cells expressing hVR1; read-out: Low pH % Inhib. @ 0.3 μM
Target sequence in this assay (Q8NER1 whole entry): as the sequence (Q8NER1 whole entry, species assumed) above

[4] = Half-life in human liver microsomes (HLM); format: in vitro ADME; conditions: human, human liver microsomes (HLM, HL101), pH 7.4; 1 μM compound, 0.78 mg/mL HLM, 37° C., NADPH
Description: Test compounds (1 μM) were incubated with 3.3 mM MgCl2 and 0.78 mg/mL HLM (HL101) in 100 mM potassium phosphate buffer (pH 7.4) at 37° C. on the 96-deep well plate. The reaction mixture was split into two groups, a non-P450 and a P450 group. NADPH was only added to the reaction mixture of the P450 group. An aliquot of samples of P450 group was collected at 0, 10, 30, and 60 min time point, where 0 min time point indicated the time when NADPH was added into the reaction mixture of P450 group. An aliquot of samples of non-P450 group was collected at −10 and 65 min time point. Collected aliquots were extracted with acetonitrile solution containing an internal standard. The precipitated protein was spun down in centrifuge (2000 rpm, 15 min). The compound concentration in supernatant was measured by LC/MS/MS system.
The half-life value was obtained by plotting the natural logarithm of the peak area ratio of compounds/internal standard versus time. The slope of the line of best fit through the points yields the rate of metabolism (k). This was converted to a half-life value using following equations:
Exemplary compounds of the invention were tested (1 μM), and were incubated with 3.3 mM MgCl2 and 0.78 mg/mL HLM (HL101) in 100 mM potassium phosphate buffer (pH 7.4) at 37° C. on the 96-deep well plate. The reaction mixture was split into two groups, a non-P450 and a P450 group. NADPH was only added to the reaction mixture of the P450 group. An aliquot of samples of the P450 group was collected at 0, 10, 30, and 60 minute time points, where the 0 minute time point indicated the time when NADPH was added into the reaction mixture of the P450 group. An aliquot of samples of the non-P450 group was collected at −10 and 65 minute time points. Collected aliquots were extracted with an acetonitrile solution containing an internal standard. The precipitated protein was spun down in a centrifuge (2000 rpm, 15 rain). The compound concentration in supernatant was measured by LC/MS/MS system. The half-life value (T1/2) was obtained by plotting the natural logarithm of the peak area ratio of compounds/internal standard versus time. The slope of the line of best fit through the points yields the rate of metabolism (k). This was converted to a half-life value using following equations: Half-life=ln 2/k.

IC50 (VR1 [1]) | inhibition of the Capsaicin induced intracellular calcium response (FIGS. 2-6) (VR1 [2]) | inhibition at 0.3 µM (VR1 [3]) | half-life at 1 μM [4] | Structure (SMILES)
7 nM | significant inhibition | 107% |  | Cc1cc(C#CC(C)(C)C)ccc1C(=O)Nc1ccc2c(c1)OCC(CO)N2 (stereo not drawn) [Compound 167]
3 nM | significant inhibition | 100% |  | Cc1cc(/C=C/C(F)(F)F)ccc1C(=O)Nc1cnc2c(c1)OCC(CO)N2 (stereo not drawn) [Compound 233]
3 nM | significant inhibition | 98% | 9.47 h | Cc1cc(/C=C/C(F)(F)F)ccc1C(=O)Nc1cnc2ccccc2c1 [Compound 187]
3 nM |  | 101% |  | Cc1cc(C#CC(C)(C)C)ccc1C(=O)Nc1ccc2scnc2c1 [Compound 198, N-(benzo[d]thiazol-5-yl)-2-methyl-4-(3,3-dimethylbut-1-ynyl)benzamide]
3 nM |  | 107% |  | Cc1cc(C#CC(C)(C)C)ccc1C(=O)Nc1ccc2sc(CO)nc2c1 [Compound 197, N-(2-(hydroxymethyl)benzo[d]thiazol-5-yl)-2-methyl-4-(3,3-dimethylbut-1-ynyl)benzamide]
5 nM |  | 116% |  | O=C(Nc1ccc2c(c1)OC[C@@H](CO)O2)c1ccc(/C=C/C(F)(F)F)cc1 [Compound 107]
3 nM |  | 103% |  | O=C(Nc1ccc2c(c1)OC[C@H](CO)N2)c1ccc(/C=C/C(F)(F)F)cc1F [Compound 193]
3 nM |  | 106% |  | Cc1cc(/C=C/C(C)(C)C)ccc1C(=O)Nc1cnc2ccccc2c1 [Compound 210]
3 nM |  | 102% |  | Cc1cc(C#CC(C)(C)C)ccc1C(=O)Nc1ccc2c(c1)OC[C@H](CO)N2 [Compound 194]
1 nM | significant inhibition | 99% | 0.02 h | O=C(Nc1cccc2cnccc12)c1ccc(C#CC(F)(F)F)cc1 [Compound 45]
 |  | 104% | 1.97 h | Cc1cc(/C=C/C(F)(F)F)ccc1C(=O)Nc1ccc2c(c1)OCC(CO)N2 (stereo not drawn) [Compound 131]
 |  | 19% | 1.88 h | COc1cc(/C=C/C(F)(F)F)ccc1C(=O)Nc1ccc2c(c1)OCCO2 [Compound 123]
4 nM |  | 89% |  | COc1c(C#CC(C)(C)C)ccc(C(=O)Nc2cccc3cnccc23)c1F [Compound 176]
 |  | 97% | 1.15 h | O=C(Nc1ccc2c(c1)OCCO2)c1ccc(/C=C/C(F)(F)F)cc1 [Compound 34]
 |  | 106% | 1.18 h | CC(C)(C)C#Cc1ccc(C(=O)Nc2ccc3c(c2)OCCO3)cn1 [Compound 22]
 |  | 91% | 0.28 h | O=C(Nc1ccc2c(c1)OC[C@@H](CO)O2)c1ccc(C#CC2CC2)cc1 [Compound 104]
 |  | 98% | 1.16 h | Cc1cc(C#CC(C)(C)C)ccc1C(=O)Nc1cccc2cnccc12 [Compound 163]
 |  | 108% | 1.56 h | O=C(Nc1ccc2c(c1)OCCN2)c1ccc(/C=C/C(F)(F)F)cc1F [Compound 134]
 |  | 105% | 1.18 h | O=C(Nc1ccc2c(c1)OCC(CO)N2)c1ccc(/C=C/C(F)(F)F)cc1F (stereo not drawn) [Compound 144]
 |  | 85% | 0.48 h | O=C(Nc1ccc2c(c1)OCCN2)c1ccc(C#CC2CC2)c(OCC2CC2)c1 [Compound 94]

IC50 (VR1 [1]) | inhibition of the Capsaicin induced intracellular calcium response (FIGS. 2-6) (VR1 [2]) | inhibition at 0.3 µM (VR1 [3]) | half-life at 1 μM [4] | Structure (SMILES)
3 nM |  | 109% | 1.24 h | CC(C)(C)C#Cc1ccc(C(=O)Nc2ccc3c(c2)OC[C@H](CO)N3)c(F)c1 [Compound 172]
3 nM |  | 74% |  | Cc1cc(C#CC(C)(C)C)ccc1C(=O)Nc1ccc2[nH]cnc2c1 [Compound 214]
 |  | 107% | 1.37 h | O=C(Nc1ccc2c(c1)OCC(CO)N2)c1ccc(/C=C/C(F)(F)F)cc1Cl (stereo not drawn) [Compound 157]
3 nM | significant inhibition | 99% | 0.34 h | C/C(=C\C(F)(F)F)c1ccc(C(=O)Nc2ccc3c(c2)OCCN3)cc1 [Compound 96]
5 nM |  | 116% | 0.75 h | O=C(Nc1ccc2c(c1)OCC(CO)N2)c1ccc(/C=C/C(F)(F)F)cc1 (stereo not drawn) [Compound 111]
3 nM |  | 108% |  | CC(C)(C)C#Cc1ccc(C(=O)Nc2ccc3c(c2)OC[C@@H](CO)N3)c(F)c1 [Compound 170]
5 nM |  | 103% | 1.03 h | Cc1cc(/C=C/C(F)(F)F)ccc1C(=O)Nc1ccc2c(c1)OCCN2 [Compound 118]
 |  | 96% | 0.58 h | O=C(Nc1cccc2cnccc12)c1ccc(/C=C/C(F)(F)F)cc1F [Compound 160]
 |  | 102% | 0.3 h | CC(C)(C)C#Cc1ncc(C(=O)Nc2ccc3c(c2)OCCN3)cn1 [Compound 95]
 |  | 83% | 1.34 h | Cc1nc2cc(NC(=O)c3ccc(/C=C/C(F)(F)F)cc3C)ccc2s1 [Compound 188]
 |  | 92% | 0.31 h | O=C(Nc1ccc2c(c1)OC[C@H](CO)O2)c1ccc(C#CC2CC2)cc1 [Compound 103]
 |  | 98% | 1.33 h | CN1CCCc2ccc(NC(=O)c3ccc(/C=C/C(F)(F)F)cc3)cc21 [Compound 79]
 |  | 105% | 2.03 h | CC(C)(C)C#Cc1ccc(C(=O)Nc2cnc3ccccc3c2)c(Cl)c1 [Compound 164]
 |  | 54% | 1.71 h | O=C(Nc1cnc2ccccc2c1)c1ccc(/C=C/C(F)(F)F)cc1 [Compound 36]
 |  | 99% | 0.33 h | O=C(Nc1cccc2cnccc12)c1ccc(C#CC2CC2)cc1 [Compound 48]
3 nM |  | 60% |  | Cc1cc(/C=C/C(F)(F)F)ccc1C(=O)Nc1ccc2c(c1)OC[C@H](CO)N2 [Compound 195]
2.5 nM |  | 106% | 0.49 h | O=C(Nc1cccc2cnccc12)c1ccc(/C=C/C(F)(F)F)cc1 [Compound 35]
5 nM |  | 100% | 1.37 h | O=C(Nc1ccc2c(c1)OCC(CO)N2)c1ccc(C#CC2CC2)cc1F (stereo not drawn) [Compound 127]
8 nM |  | 99% |  | CC(C)(C)C#Cc1cc(F)c(C(=O)Nc2cccc3cnccc23)c(F)c1 [Compound 166]
3 nM |  | 107% |  | CC(C)(C)C#Cc1ccc(C(=O)Nc2ccc3c(c2)OCC(CO)N3)c(F)c1 (stereo not drawn) [Compound 138]
